The melting point is the temperature of the solid-liquid transition.

In turn, `N#Cc1ccc(N=C=O)cc1` gave a melting point of 101 to 104 °C. Molecule `CSc1nc(Cl)cc(CCl)n1` registered a melting point of 28 to 32 °C.

Regarding `Cn1c(CO)nc2cc(Cl)ccc21`, the melting point was in the range of 179 to 181 °C.

On to `O=C(CCl)n1nc2ccccn2c1=O`, for which the melting point fell in the range of 164 to 166 °C. Molecule `COc1cc2c(cc1/C=C/C(=O)O)OC(C)C2` (configuration not stated) had a melting point of 146 to 148 °C. As for `O=C(Nc1cc(Cl)ccc1Cl)C1CCCCN1` (configuration not stated), the figure is 127 to 129 °C.

The molecule `O=C(O)c1ccccc1SCCO` displayed a melting point of 125 to 127 °C.

As to `CNS(=O)(=O)CCC(=O)OCc1ccccc1`, the melting point fell in the range of 59 to 61 °C.

Regarding `Cc1nn(C)c(C)c1OCC(=O)O`, the melting point is 172 to 174 °C. For `CC(C)n1[nH]ccc1=NC(=O)Nc1ccccc1`, the melting point fell in the range of 110 to 112 °C. `OC(CC1COCCN1)c1ccccc1` (configuration not stated) had a melting point of 74 to 76 °C. Regarding `CN(C)S(=O)(=O)c1ccc(C#N)cc1`, the melting point fell in the range of 128 to 130 °C. The molecule `Cc1cc2nc(-c3cccc4ncccc34)[nH]c2cc1C` had a melting point of 129 to 131 °C. As for `Cc1ccc(N(C)S(=O)(=O)c2cccc(C(=O)O)c2)cc1`, the figure is 162 to 164 °C; as for `O=C(O)C1CC1c1cccc(Cl)c1` (configuration not stated), 89 to 91 °C; as for `NC(=O)c1ccc2c(N)ncnc2c1`, 359 to 361 °C. Molecule `O=C(O)c1ccc(Nc2ccccc2)c([N+](=O)[O-])c1` showed a melting point of 250 to 252 °C. In the case of `CNS(=O)(=O)c1c(C)noc1C`, the melting point lay in the range of 70 to 72 °C. With `O=C(O)c1cccc(OCc2ccccc2OC(F)F)c1` the figure was 139 to 141 °C. `Cc1sc(N)nc1-c1ccc(F)c(F)c1`: the melting point was 135 to 137 °C.

Take `Cc1nnc(Cl)n1-c1ccccc1`: the melting point lay within 252 to 254 °C. Consider `CCCn1c(=O)[nH]c(=O)c2[nH]cnc21`, for which the melting point fell in the range of 288 to 290 °C. With `COC(=O)c1cc(Br)cc(S(N)(=O)=O)c1` the figure was 138 to 140 °C; with `Cc1cccc(Nc2nnc(SCC(=O)O)s2)c1C`, 159 to 161 °C; with `Cc1nn(CCCl)c(C)c1C=O`, 49 to 51 °C. As for `Nc1nc(-c2ccc(N3CCCC3=O)cc2)cs1`, the melting point was in the range of 283 to 285 °C. As for `NNS(=O)(=O)Cc1ccc(F)cc1`, the figure is 144 to 146 °C; as for `NC(=O)c1ccncc1F`, 126 to 128 °C. The molecule `Cc1noc(C)c1COc1ccccc1C(=O)O` displayed a melting point of 172 to 174 °C. As for `N#Cc1cc(C2CC2)ccn1`, the figure is 60 to 62 °C; as for `CCOc1ccc([N+](=O)[O-])cc1C=O`, 66 to 68 °C; as for `Sc1nnc(-c2c[nH]c3ccccc23)o1`, 218 to 225 °C. On to `O=C(O)c1ccccc1N1CCOCC1`, for which the melting point fell in the range of 58 to 60 °C. Take `Nc1nnc(Cl)s1`: the melting point lay in the range of 179 to 181 °C.

In the case of `CNCCCc1cc(-c2ccc(F)cc2)n[nH]1`, the melting point lay within 104 to 106 °C. In turn, `CCCCCNC1=NCC(c2ccccc2)S1` (configuration not stated) registered a melting point of 66 to 68 °C. `CCN(CCC(N)=S)C(C)=O` yielded a melting point of 56 to 58 °C. `NNc1cc(C(F)(F)F)nc(-c2ccncc2)n1` came in with a melting point of 233 to 235 °C. In turn, `CNS(=O)(=O)c1cc(N)ccc1OC` came in with a melting point of 169 to 171 °C. As for `O=C(O)CNCCO`, the figure is 184 to 186 °C; as for `O=C(O)CNC(=O)CC12CC3CC(CC(C3)C1)C2`, 165 to 167 °C; as for `c1ccc(CCc2nnn[nH]2)cc1`, 96 to 98 °C. The molecule `Cc1ccc(C)c(-n2cnc(O)n2)c1` registered a melting point of 166 to 168 °C.

In turn, `OCC1CNc2ccccc2C1` (configuration not stated) came in with a melting point of 79 to 81 °C. As for `O=[N+]([O-])c1ccc(F)cc1S(=O)(=O)Cl`, the melting point fell in the range of 57 to 59 °C. Molecule `O=C(Nc1ccc(C(F)(F)F)cc1)OCC(F)(F)F` yielded a melting point of 102 to 104 °C. On to `CNc1nc(N)n[nH]1`, for which the melting point lay within 158 to 160 °C. In turn, `O=C(O)C(NCc1ccccc1)C1CC1` (configuration not stated) came in with a melting point of 228 to 230 °C. Molecule `O=[N+]([O-])c1ccc(S)nc1` registered a melting point of 169 to 171 °C.

With `Cn1ncc(-c2nc(C3CC3)no2)c1N`, the melting point lay within 159 to 161 °C. On to `Nc1nc(Cl)c(C=O)c(N2CCOCC2)n1`, for which the melting point lay in the range of 173 to 175 °C. Molecule `O=C1CCCCC1c1ccc(C(F)(F)F)cc1` (configuration not stated) gave a melting point of 96 to 98 °C. Molecule `Cc1ccc(S(=O)(=O)N2CCC(N)CC2)cc1` returned a melting point of 105 to 109 °C. As for `O=C1NC(=O)C(c2cccs2)(C2CC2)N1` (configuration not stated), the melting point lay in the range of 199 to 201 °C.

As to `O=C(O)C1CCOc2ccccc21` (configuration not stated), the melting point was 87 to 89 °C. With `Cc1ccc(S(N)(=O)=O)cc1N` the figure was 176 to 178 °C. Molecule `CCOC(=O)/C(C#N)=C\Nc1ccc(Cl)cc1F` returned a melting point of 154 to 156 °C. On to `O=C(O)c1ccc(CN2CCc3ccccc32)cc1`, for which the melting point lay within 182 to 184 °C. `CC1CC(C(=O)O)CC(C)(C)C1` (configuration not stated) returned a melting point of 39 to 41 °C. The molecule `Nc1ccc(N2CCCC2)c(S(=O)(=O)Nc2cccc(C(F)(F)F)c2)c1` had a melting point of 151 to 153 °C. `CN(C)C1(C(=O)O)CCCSC1` (configuration not stated) came in with a melting point of 196 to 198 °C. `CC(C)(C)OC(=O)NCCc1nnc2n1CCCC2` registered a melting point of 158 to 160 °C. Molecule `O=C(O)CCCNc1ccc(C(F)(F)F)cn1` displayed a melting point of 91 to 93 °C.

`CN(CC(=O)O)C(=O)c1ccc(Br)s1` yielded a melting point of 114 to 116 °C.

The molecule `CCC(=O)Nc1ccc(O)c(C(=O)O)c1` yielded a melting point of 217 to 219 °C. For `O=c1oc2ccc([N+](=O)[O-])cc2n1CCCBr`, the melting point lay within 109 to 111 °C.

`CC(C)(C)c1cnc(S)o1`: the melting point was in the range of 131 to 133 °C. In turn, `NS(=O)(=O)NCc1cccnc1` came in with a melting point of 129 to 131 °C.

As to `NS(=O)(=O)c1cccc2c1CCCN2`, the melting point is 147 to 149 °C. As for `CC(C)(C)C(=O)Nc1nccnc1C(=O)O`, the figure is 96 to 98 °C.

With `Cn1cc(C#N)ccc1=O`, the melting point is 159 to 161 °C.

In turn, `CCOC(=O)c1[nH]ncc1C=O` displayed a melting point of 168 to 170 °C. For the molecule `Nc1cc(S(=O)(=O)N2CCOCC2)ccc1N1CCCC1`, the melting point lay in the range of 179 to 181 °C. The molecule `COc1cccc(Nc2nnc(SCC(=O)O)s2)c1` registered a melting point of 135 to 137 °C.

In the case of `Cn1c(CC(N)=NO)nc2ccccc21`, the melting point is 240 to 242 °C.

Take `NCc1ccc(-c2ccn[nH]2)cc1`: the melting point fell in the range of 141 to 143 °C. With `O=C(O)c1c[nH]cc1-c1ccccc1` the figure was 212 to 214 °C; with `COc1ccc(C(=O)O)cc1N1CCNC1=O`, 246 to 248 °C; with `NCC(O)(c1ccccc1)C(F)(F)F` (configuration not stated), 76 to 78 °C. For the molecule `CC(=O)N1CCCc2cc(Br)ccc21`, the melting point lay in the range of 59 to 61 °C.

As for `COC(=O)c1cc(S(=O)(=O)N2CCCC2)ccc1O`, the melting point was in the range of 160 to 162 °C.

On to `Nn1c(S)nnc1-c1ccccc1Br`, for which the melting point lay in the range of 188 to 190 °C. In turn, `O=c1[nH]cnc2cc(-c3ccc(Cl)cc3)sc12` yielded a melting point of 327 to 329 °C. Regarding `N#CCC(=O)Nc1ccccc1Br`, the melting point was 136 to 138 °C. With `C=C(C)CNC(=S)NN` the figure was 86 to 88 °C. `O=C(O)c1cc(=O)n(-c2ccc([N+](=O)[O-])cc2)[nH]1` had a melting point of 225 to 227 °C. Regarding `CCCCn1c(=O)[nH]c(=O)c2c1nc(CO)n2CCC`, the melting point is 134 to 136 °C. Regarding `O=C1C=CC(=O)N1c1cccc2cnccc12`, the melting point was in the range of 134 to 136 °C.

Regarding `O=[N+]([O-])c1ccc(Cl)cc1I`, the melting point was in the range of 62 to 64 °C. `O=C(O)CCCCNC(=O)OCc1ccccc1` gave a melting point of 104 to 106 °C.

In the case of `C#CCN1CCC(NC2CCOCC2)CC1`, the melting point lay within 74 to 76 °C. Turning to `O=C(O)c1ccc(OCC2CC2)nc1`, the melting point lay within 156 to 158 °C. For the molecule `CS(=O)(=O)Nc1ccc(C(F)(F)F)cc1N`, the melting point was in the range of 126 to 128 °C.

In the case of `Cc1noc(C)c1COc1ccc(C=O)cc1`, the melting point fell in the range of 107 to 109 °C. Molecule `CCOC(=O)c1cc(C23CC4CC(CC(C4)C2)C3)[nH]n1` showed a melting point of 192 to 194 °C.

In turn, `COCC(C)NS(=O)(=O)c1ccc(Cl)c([N+](=O)[O-])c1` (configuration not stated) returned a melting point of 209 to 211 °C. `NC(=O)CCS(=O)(=O)CCCl` gave a melting point of 139 to 141 °C. Regarding `Nc1cc(Cl)c(-c2cc(Cl)c(N)cc2Cl)cc1Cl`, the melting point lay within 135 to 140 °C. Molecule `Cc1n[nH]c(C)c1C=O` displayed a melting point of 85 to 87 °C.

Regarding `N#Cc1ccc(Oc2cccc([N+](=O)[O-])c2)cc1`, the melting point was in the range of 124 to 126 °C. Molecule `Cc1nc(Cl)cc(-c2ccccn2)n1` yielded a melting point of 75 to 77 °C. Molecule `COc1ccc(OC)c(-c2cc(C(=O)O)no2)c1` came in with a melting point of 192 to 194 °C. Molecule `Sc1nc2cc(Cl)cc(Cl)c2[nH]1` returned a melting point of 376 to 378 °C. In turn, `COc1ccc(Cl)c(S(=O)(=O)Cl)c1` displayed a melting point of 41 to 43 °C. In the case of `NNC(=O)c1cccc(S(=O)(=O)N2CCCC2)c1`, the melting point lay in the range of 153 to 155 °C. Consider `O=C(Nc1cccc(O)c1)c1ccccc1`, for which the melting point was 171 to 173 °C. For the molecule `O=C1CC(c2ccccc2F)C(=O)N1` (configuration not stated), the melting point lay within 97 to 99 °C.

With `CC(=O)CC(=O)c1cccc(Cl)c1`, the melting point lay in the range of 39 to 41 °C. Consider `CC1CNc2ccccc2C(=O)N1` (configuration not stated), for which the melting point was in the range of 189 to 191 °C.

`Cc1cc(N)n(-c2ccc(F)cc2)n1`: the melting point lay within 109 to 111 °C. With `N#Cc1ccc(OCC(=O)O)cc1`, the melting point was in the range of 177 to 179 °C. As for `NS(=O)(=O)c1cnc2c(c1)CCC2`, the figure is 188 to 190 °C; as for `CCCS(=O)(=O)Nc1ccccc1C(C)NC` (configuration not stated), 58 to 60 °C; as for `O=C(O)c1ccnc(C2CC2)c1`, 257 to 259 °C.

In turn, `N#Cc1c(F)cccc1-n1ccc(N)n1` showed a melting point of 134 to 136 °C. The molecule `Cc1sc2nc(CC#N)[nH]c(=O)c2c1C` displayed a melting point of 283 to 285 °C. Consider `CC1C(=O)Nc2ccc(S(=O)(=O)Cl)cc21` (configuration not stated), for which the melting point lay within 164 to 168 °C.

With `CN(C)c1ccnc(C(=O)O)c1`, the melting point is 234 to 236 °C. `NCCNc1ccncc1` had a melting point of 118 to 120 °C. With `O=C(Nc1cccc(O)c1)c1cccs1`, the melting point was in the range of 154 to 156 °C.

Consider `CCOc1cccc2[nH]c(C(=O)O)cc12`, for which the melting point fell in the range of 255 to 257 °C. For `CCOC(=O)Cc1nc2ccccc2[nH]1`, the melting point lay within 179 to 181 °C.
